{"source": "patent US20150034084A1", "about": "“[…] NITRIC OXIDE FOR TREATING RESPIRATORY DISEASES” (Advanced Inhalation Therapies (AIT) Ltd., priority 2012, published 2015)", "key": {"[1]": {"details": "rats, gNO concentrations below 200 ppm, 6 hours/day for 28 days; cited from earlier work"}, "[2]": {"test_system": "Ang-1 and Ang-2", "test": "Phase I safety study: plasma angiopoietins (vascular endothelial activation)", "format": "in vivo, human", "details": "160 ppm gNO inhalation", "protocol": "(§1) After obtaining informed consent, treatment was initiated within 5 days of enrollment. Subjects were housed in a hospital ward and received 160 ppm gNO for 30 minutes every four hours (Q4h), five times a day, for five consecutive days by inhalation. Subjects returned for follow-up evaluations 3, 7 and 21 days after the final gNO administration. Subject safety was determined by monitoring vital signs, methemoglobin levels, lung function, blood chemistry, hematology, prothrombin time, inflammatory cytokine/chemokines levels and endothelial activation. These parameters were compared to baseline and at various time-points during and after gNO administration.\nHematological assessment included a complete blood count and differentials (hemoglobin, hematocrit, red blood cell count, white blood cell count, white blood cell differential, and platelet count) were obtained in order to monitor blood chemistry, hematology and inflammation measurements. The blood chemistry profile included serum creatinine, and liver function tests such as aspartate aminotransferase (AST) serum glutamic oxaloacetic transaminase (SGOT), alkaline phosphatase, and gamma-glutamyl transferase (GGT). The effect of gNO on coagulation was determined by the prothrombin time (PT) and its derived measures of prothrombin ratio (PR) and international normalized ratio (INR). Heparinized plasma was collected at baseline and on days 1, 2, 4, and 5 of gNO administration, and on follow-up days 3, 7 and 21 and frozen at −80° C. Plasma cytokine levels were assessed using the human inflammation cytokine bead array kit (BD Bioscience, Canada). Plasma levels of angiopoietin Ang-1 and Ang-2 were determined by ELISA (R&D Systems, USA).\nTo assess whether gNO inhalation may cause inflammation or endothelial activation cytokines and the vascular endothelium activation factors Ang-1 and Ang-2 were quantified in peripheral plasma at baseline at various time points thereafter."}, "[3]": {"test": "Phase I open label safety study of intermittent 160 ppm gNO inhalation: adverse events, vital signs, oxygenation", "format": "in vivo, human", "source_text": "10 healthy adult volunteer subjects (5 males, 5 females), aged 20 to 62 years, were enrolled in the study after screening their medical history, a physical examination, pulmonary function tests and blood values. Exclusion criteria included individuals less than 19 years of age, pregnant females and unwilling to practice birth control during the study, diagnosed with pulmonary disease, epistaxis, hemoptysis, methemoglobinemia, organ transplant recipient or receiving antibiotic therapy.\nas §1\nSubjects were administered gNO through a modified disposable mouthpiece to maximize mixing. Inspiration was spontaneously initiated by the subject from a conventional intermittent positive pressure breathing respirator (Mark-7, Carefusion, USA) in fixed flow mode delivering 48 liters per minute (LPM). Flows of gas were verified with a calibrated mass flow meter (TSI, USA). Gaseous nitric oxide (gNO, obtained at INOmax, Ikaria, USA) at a concentration of 800 ppm delivered at a flow of 12 LPM was titrated into a distal delivery port on the mouth piece connected to the respirator during inspiratory phase only (pressure switch). The Mark 7 respirator was supplied by an air/oxygen blender (Bird Sentry, Carefusion, USA) set to deliver 26% oxygen.\nGeneral medical examinations were performed by a pulmonary physician on screening and on days 8, 12 and 26 to obtain oxygenation and vital sign measurements. Abbreviated physical examination by a registered nurse was carried out each day prior to initiation of treatments on days 1-5. Oxygenation was measured with a pulse oximeter (Rad 57, Masimo Corporation, USA) which was used according to manufacturer's guidelines to measure functional oxygen saturation of arterial hemoglobin (SpO2) and heart rate. These parameters were measured continuously during every gNO administration and for 3.5 hours after the first treatment of the day. Cardiovascular status was determined by monitoring heart rate, blood pressure, respiratory rate and temperature. Values were recorded prior to the start of each gNO administration, following a 5 minute rest. During treatments, vital signs (except temperature) were also performed 15 minutes after the start of the treatment and at the end of gNO administration and recorded. After the first treatment each day, vital signs were recorded at every 30 minutes until the start of the second gNO administration of the day."}, "[4]": {"test_system": "MRSA biofilm", "details": "200 ppm gNO for eight hours (1,600 ppm hours); cited from earlier work"}, "[5]": {"test_system": "P. aeruginosa (ATCC)", "details": "200 ppm gNO, saline; cited from earlier work"}, "[6]": {"test_system": "Klebsiella sp.#3", "details": "200 ppm gNO, saline; cited from earlier work"}, "[7]": {"test_system": "S. maltophilia", "details": "200 ppm gNO, saline; cited from earlier work"}, "[8]": {"test_system": "MRSA", "details": "200 ppm gNO, saline; cited from earlier work"}, "[9]": {"details": "OSHA / Environmental Protection Agency; cited from earlier work"}, "[10]": {"details": "continuous delivery of 80 ppm gNO; cited from earlier work"}, "[11]": {"test_system": "Serracia sp.", "details": "200 ppm gNO, saline; cited from earlier work"}, "[12]": {"test": "Phase I safety study: serum nitrite/nitrate by Griess reagent", "format": "in vivo, human", "details": "during the trial, 160 ppm gNO", "protocol": "as §1\nThese parameters were measured continuously during every gNO administration course and for 3.5 hours after the first treatment of the day. Daily serum samples were collected and frozen at −80° C. and the serum […] level was measured using the Griess reagent."}, "[13]": {"details": "160 ppm gNO 30 min, 5 times a day, 5 days, 10 healthy adults"}, "[14]": {"details": "during or after gNO administration, 160 ppm"}}}
{"smiles": "[N]=O", "note": "[gNO, nitric oxide]", "values": [{"measurement": "deaths", "setting": "[1]", "value": "No deaths occurred"}, {"measurement": "Ang-2/Ang-1 ratio", "setting": "[2]", "value": "not affected"}, {"measurement": "plasma Ang-1", "setting": "[2]", "value": "unaffected"}, {"measurement": "plasma Ang-2", "setting": "[2]", "value": "not affected"}, {"measurement": "minor adverse events reported", "setting": "[3]; [13]", "value": "Three minor adverse events were reported"}, {"measurement": "significant adverse events", "setting": "[3]; [13]", "value": "no significant adverse events were observed"}, {"measurement": "tolerability of treatments", "setting": "[3]; 160 ppm gNO 30 min, 5 times a day, 5 days, 10 healthy adults, 250 administrations", "value": "All treatments were well tolerated"}, {"measurement": "lowest observed SpO2", "setting": "[3]; 160 ppm gNO intermittent inhalation", "value": 93, "unit": "%"}, {"measurement": "SpO2 levels over time, pretreatment vs post treatment", "setting": "[3]; 160 ppm gNO, not significant statistically nor clinically", "value": "decreased slightly"}, {"measurement": "vital signs", "setting": "[3]; during and after gNO administration, 160 ppm", "value": "all vital signs remained within normal limits"}, {"measurement": "blood pressure", "setting": "[3]; [14]", "value": "no drop in blood pressure"}, {"measurement": "incidences of hypoxemia (less than 85% SpO2)", "setting": "[3]; [14]", "value": "No sudden incidences of hypoxemia"}, {"measurement": "MRSA in biofilm", "setting": "[4]", "value": "shown to reduce MRSA"}, {"measurement": "LD100", "setting": "[5]", "value": 3, "unit": "h"}, {"measurement": "Latent Period", "setting": "[5]", "value": 1, "unit": "h"}, {"measurement": "−2.5 Log10", "setting": "[5]", "value": 2.1, "unit": "hours"}, {"measurement": "LD100", "setting": "[6]", "value": 6, "unit": "h"}, {"measurement": "Latent Period", "setting": "[6]", "value": 3, "unit": "h"}, {"measurement": "−2.5 Log10", "setting": "[6]", "value": 5.1, "unit": "hours"}, {"measurement": "LD100", "setting": "[7]", "value": 4, "unit": "h"}, {"measurement": "Latent Period", "setting": "[7]", "value": 2, "unit": "h"}, {"measurement": "−2.5 Log10", "setting": "[7]", "value": 2.8, "unit": "hours"}, {"measurement": "LD100", "setting": "[8]", "value": 5, "unit": "h"}, {"measurement": "Latent Period", "setting": "[8]", "value": 3, "unit": "h"}, {"measurement": "−2.5 Log10", "setting": "[8]", "value": 4.2, "unit": "hours"}, {"measurement": "inhalation threshold limit value (TLV) as a time-weighted average (TWA)", "setting": "[9]", "value": 25, "unit": "ppm"}, {"measurement": "NO2 level", "setting": "[10]", "value": 2.6, "unit": "ppm"}, {"measurement": "increase of SpMet levels", "setting": "[10]", "value": "at least 5%"}, {"measurement": "subjects exceeding 7% SpMet", "setting": "[10]", "value": 35, "unit": "%"}, {"measurement": "LD100", "setting": "[11]", "value": 6, "unit": "h"}, {"measurement": "Latent Period", "setting": "[11]", "value": 4, "unit": "h"}, {"measurement": "−2.5 Log10", "setting": "[11]", "value": 4.9, "unit": "hours"}, {"measurement": "serum nitrite/nitrate levels versus baseline", "setting": "[12]", "value": "no significant differences"}]}
